Publication PMC8355692, “Antimelanoma activities of chimeric thiazole–androstenone derivatives” (Royal Society Open Science, 2021)
pIC50: −log10 of the molar value.

Columns and labels:
MALME-3M = test: NCI DTP 60 cell line five-concentration test, melanoma panel; type: cell-based; details: Homo sapiens; MALME-3M melanoma cell line
Procedure: (§1) In our effort to develop new methodologies to synthesize bioactive compounds [11–14], we have synthesized a number of thiazole and thiazolo-androstenone derivatives. We submitted 50 of the synthesized thiazole–androstenone derivatives to the National Cancer Institute (NCI) Development Therapeutics Program (DTP) to test against 60 cancer cell lines (https://dtp.cancer.gov/). These compounds were tested for cytotoxicity at a single dose of 10 µM. […] Eight of these chimeric compounds (figure 2) were selected for further testing at five different concentrations to determine 50% growth inhibition (GI50), total growth inhibition (TGI) and 50% lethal concentration (LC50) values. […] Overall, amino-thiazole derivatives (table 1, 1–7) were more toxic to melanoma cell lines than phenyl thiazole derivatives (8). Fluoro and oxy (hydroxy and methoxy) derivatives were the potent growth inhibitors of the tested cancer cell lines. LOX IMVI cell line was the most susceptible among all the melanoma cell lines used against the tested compounds (table 1). […] Phenyl ethyl derivative (1) inhibited the growth of all the cell lines except SK-MEL-2. […] 2,4-Dimethyl substituted derivative (7) is a potent growth inhibitor of all the tested cell lines of the melanoma panel.

SK-MEL-5 = test: as above; type: cell-based; details: Homo sapiens; SK-MEL-5 melanoma cell line
Procedure: as §1

UACC-257 = test: as above; type: cell-based; details: Homo sapiens; UACC-257 melanoma cell line
Procedure: as §1

SK-MEL-2 = test: as above; type: cell-based; details: Homo sapiens; SK-MEL-2 melanoma cell line
Procedure: as §1

M14 = test: as above; type: cell-based; details: Homo sapiens, M14, M14 melanoma cell line
Procedure: as §1

UACC-62 = test: as above; type: cell-based; details: Homo sapiens, UACC-62, UACC-62 melanoma cell line
Procedure: as §1

LOX IMVI = test: as above; type: cell-based; details: Homo sapiens; LOX IMVI melanoma cell line
Procedure: as §1

SK-MEL-28 = test: as above; type: cell-based; details: Homo sapiens, SK-MEL-28, SK-MEL-28 melanoma cell line
Procedure: as §1

MDA-MB-435 = test: as above; type: cell-based; details: Homo sapiens; MDA-MB-435 melanoma cell line
Procedure: as §1

melanoma panel = test: NCI DTP test, statements for the whole melanoma panel; type: cell-based
Procedure: as §1

endonuclease G (EndoG) = test: EndoG immunocytochemistry combined with TUNEL (caspase-independent apoptosis); type: cell-based; details: melanoma cells, 24 h
Excerpt: (§2) The elevation was dose-dependent.
(§3) Figure 4. […] (c) Representative images. […] Mean ± s.e.m., n = 4 per group.
(§4) Figure 5. […] (a) Representative images of TUNEL colocalized or not colocalized with each of the three protein markers used in this study. […] Mean ± s.e.m., n = 4 per group.
(§5) Thus, to determine the mechanism of action of our compounds on melanoma cells in vitro, we applied the fluorescent TUNEL assay combined with quantitative ICC for three markers: HO1 for oxidative cell injury, CAD for caspase-mediated apoptosis and EndoG for caspase-independent apoptosis. […] However, none of the compounds or dacarbazine induced apoptotic endonucleases. This is not surprising because apoptotic endonucleases are commonly present in the cell in sufficient amounts to be able to destroy DNA upon cell death without induction (which most likely would not be possible in a dead cell).

HFF-1 cell line = test: Toxicity for normal human foreskin fibroblast cell line; type: cell-based; details: normal human foreskin fibroblast HFF-1
Excerpt: To assess the potential use of lead compounds as anti-melanoma agents, we tested their toxicity for the normal human foreskin fibroblast (HFF-1) cell line taking into consideration that MM is usually surrounded by the cells of this kind. The effects of some of the potent compounds on this cell line were very encouraging (table 4).

heme oxygenase-1 (HO1) = test: HO1 immunocytochemistry combined with TUNEL (oxidative injury); type: cell-based; details: melanoma cells, 5 or 10 µM, 24 h
Excerpt: as §2, §3, §4, §5

SK-MEL-28 cell line = test: Annexin V flow cytometry apoptosis assay; type: cell-based; details: SK-MEL-28, 200 µM
Procedure: After determining the selective toxicity of potent molecules, we determined their mode of action against the melanoma cell line. Apoptosis or programmed cell death is a physiological process to remove unwanted or damaged mammalian cells. We detected apoptosis mode of cell death by our potent compounds using flow cytometry-based Annexin V assay. Compound 3 caused 23% apoptosis at 6 µM and 54% apoptosis at 12 µM (figure 3). 3-Fluorophenyl derivative (5) was a very potent apoptosis-inducing agent that caused 100% cell death at 12 µM concentration. Dacarbazine, the positive control, caused 22% apoptotic cell death at 200 µM concentration.
Figure 3. Apoptosis measurements using Annexin V flow cytometry assay of compounds 3 and 5 against SK-MEL-28 cell line at 6 and 12 µM concentrations. DMSO and dacarbazine (Daca) are negative and positive controls, respectively. Mean ± s.e.m., n = 3 per group.

[1] = system: caspase-activated DNase (CAD); test: CAD immunocytochemistry combined with TUNEL (caspase-mediated apoptosis); type: cell-based; details: melanoma cells, 5 or 10 µM, 24 h
Excerpt: as §2, §3, §4, §5

melanoma cells = test: TUNEL staining for DNA fragmentation and irreversible cell death; details: 5 or 10 µM, 24 h
Excerpt: Apoptosis is usually associated with profound DNA fragmentation that makes the cell death irreversible. DNA fragmentation could be due to the increasing of nuclear DNA access to apoptotic endonucleases and the induction of these enzymes. This DNA fragmentation is best measured by using the terminal deoxynucleotidyl transferase dUTP nick-end labelling (TUNEL) assay. […] Immunostaining for major marker of oxidative injury, heme oxygenase-1 (HO1) was done to determine whether the test compounds induce oxidative injury. […] Activation of endonucleases and their translocation to the nucleus is actually the last step when cell death becomes irreversible. It is often preceded by an oxidative cell injury that activates or aggravates the cell death mechanism. To measure whether our compounds induce oxidative injury, we chose to measure HO1 which is a well-established mechanistic marker of oxidative injury. Because HO1 is not a nuclear marker and it is not translocated to the nucleus and contact DNA during cell death, instead of colocalization by pixels, we counted the percentage of TUNEL-positive (dead) cells which are also HO1-positive (figure 5a). […] We next examined whether caspase-activated DNase (CAD), a known mechanistic marker of caspase-mediated apoptosis, is colocalized with TUNEL during cell death induced by dacarbazine or our test compounds (3, 4 and 5).
Figure 4. […]

SMILES: C[C@]12CCc3nc(Nc4ccc(F)cc4F)sc3C1=CC[C@@H]1[C@@H]2CC[C@]2(C)C(=O)CC[C@@H]12 [Compound 6]
- GI50 (MALME-3M): > 100 µM
- GI50 (SK-MEL-5): 1.88 µM
- GI50 (UACC-257): > 100 µM
- GI50 (SK-MEL-2): > 100 µM
- GI50 (M14): > 100 µM
- GI50 (UACC-62): > 100 µM
- GI50 (LOX IMVI): 1.71 µM
- GI50 (SK-MEL-28): > 100 µM
- GI50 (MDA-MB-435): > 100 µM
- TGI values against the cell lines of the melanoma panel (melanoma panel): did not show any useful TGI values

SMILES: CN(C)/N=N/c1[nH]cnc1C(N)=O [dacarbazine, reference compound]
- EndoG overlap with TUNEL staining (caspase-independent apoptosis) (endonuclease G (EndoG); 5 µM): did not show any effect
- EndoG overlap with TUNEL staining (caspase-independent apoptosis) (endonuclease G (EndoG); 10 µM): significant increase
- EndoG mean intensity (endonuclease G (EndoG); 5 or 10 µM): No significant induction
- toxicity against HFF1 cells (in words) (HFF-1 cell line): did not show any notable toxicity
- pIC50 (HFF-1 cell line; read-out: IC50 against HFF1 cell line): < 4.00
- HO1 staining in TUNEL-positive cells (oxidative injury) (heme oxygenase-1 (HO1)): without induction of HO1
- apoptotic cell death (SK-MEL-28 cell line): 22%
- CAD mean intensity [1]: No significant induction
- colocalization of CAD with TUNEL (caspase-mediated apoptosis) [1]: did not induce any association of CAD with TUNEL
- cytotoxicity by TUNEL staining (TUNEL-positivity) (melanoma cells): negligent
